Test results taken from patent publication US12240811B2, “N-heterocyclic five-membered ring-containing capsid protein assembly inhibitor, pharmaceutical composition and uses thereof” (CHIA TAI TIANQING PHARMACEUTICAL GROUP CO., LTD., priority 2019, dated 2025).

Experiments:
HBV DNA in serum [1] = test: pAAV/HBV mouse model; format: in vivo, C57BL/6 mice; details: 3 mpk intragastric once daily
Method: 6-8 week old male C57BL/6 mice (Shanghai Lingchang Biotechnology Co., Ltd.) were used, and each mouse was injected with purified recombinant plasmid pAAV/HBV1.2 ([…]) dissolved in PBS equivalent to a volume of about 10% of its body weight through the tail vein within 3-8 s. Blood was collected from the orbits of the mice at 3 days after the plasmid injection to detect serum HBV DNA. The model mice having uniform serum DNA were selected and divided into: a model control group, a vehicle control group, and a test substance group. Mice in each group were continuously administered intragastrically once daily for 10 days at a dose of 3 mg/kg. The mouse serum was taken on day 0, 4, 7, and 10 after the administration, and the mice were sacrificed on day 10 to take liver tissue samples. The HBV DNA copy numbers in serum and liver of the mice were detected by fluorescent quantitative PCR method.

CYP2C19 = CYP2C19 (Homo sapiens (Human), UniProt P33261); test: CYP450 enzyme inhibition study, CYP2C19; format: in vitro ADME
Method: 500 μL of a final incubation system contains 50 μL of human liver microsomes (protein concentration: 0.2 mg/mL, Corning), 1 μL of mixed CYP450 specific substrates (CYP1A2, CYP 2B6, CYP 2C9, CYP2C19, CYP 2D6, and CYP 3A4), 398 μL PBS buffer (pH7.4), 1 μL specific positive inhibitor (positive control group) or the test compound (formulated with acetonitrile), and 50 μL NADPH+MgCl2. Duplicate incubation systems of 0.5 mL each were formulated for each CYP450 subtype. A total volume of 450 μL of a uniformly mixed solution of the substrate and the enzyme was formulated in each tube, and the solution and NADPH were pre-incubated at 37° C. for 5 minutes, respectively. Then 50 μL of the mixed solution of NADPH+MgCl2 was added for reaction. 50 μL of the reaction solution was taken out at 30 minutes, and the reaction was terminated with 300 μL of ice acetonitrile containing an internal standard. In addition, two control groups of 500 μL each without NADPH were prepared in parallel as a negative control group.
Sample pre-treatment: To 50 μL of the incubated sample was added 300 μL of ice acetonitrile containing an internal standard, and then precipitated. After vortexing for 5 minutes, the sample was centrifugated (12000 rpm, 4° C.) for 10 minutes. 75 μL of the supernatant was pipetted, and 75 μL of ultrapure water was added thereto for dilution and mixed uniformly. […]

[2] = Stability of liver microsomes in vitro, human; format: in vitro ADME
Method: 300 μL of a final incubation system contains 30 μL of liver microsomes (protein concentration: 0.15 mg/mL, Corning), 30 μL NADPH+MgCl2, 3 μL substrate (formulated with acetonitrile), and 237 μL PBS buffer. Duplicate incubation systems of 0.3 mL each were formulated for each species. A total volume of 270 μL of a uniformly mixed solution of the substrate and the enzyme was formulated in each tube, the solution and NADPH were pre-incubated at 37° C. for 5 minutes, respectively. Then 30 μL of the mixed solution of NADPH+MgCl2 was added for reaction. 50 μL of the reaction solution was taken out at 0, 10, 30, and 60 mins, and the reaction was terminated with 300 μL of ice acetonitrile containing an internal standard.
Sample pre-treatment: To 50 μL of the incubated sample was added 300 μL of ice acetonitrile containing diazepam as an internal standard and then precipitated. After vortexing for 5 minutes, the sample was centrifugated (12000 rpm, 4° C.) for 10 minutes. 75 μL of the supernatant was pipetted into a 96-well plate, and then diluted with 75 μL ultrapure water and mixed uniformly. 0.5 μL of the resulting solution was injected and analyzed by LC-MS/MS.

[3] = Plasma protein binding assay, dog plasma; format: in vitro ADME
Method: Formulation of plasma sample: 495 μL of blank plasmas of the corresponding species (mouse, rat, dog, monkey, and human) were drawn respectively, and thereto was added 5 μL of the corresponding test compound solution or positive control to give plasma sample solutions having a plasma drug concentration of the compound of 1 μM, and 10 μM, respectively (formulated with acetonitrile).
The pre-treated dialysis membrane was placed in a high-throughput equilibrium dialysis device, and 100 μL of the plasma sample solution and PBS buffer solution were drawn and added respectively to both sides of the dialysis membrane (sample side and buffer side) (n=3). After the equilibration device was sealed with a film, it was incubated at 37° C. overnight (100 rpm). After dialysis equilibrium was reached, 50 μL samples were drawn from the sample side and the buffer side, respectively, and the reaction was terminated by adding ice acetonitrile containing an internal standard.
Sample pre-treatment: To 50 μL of the plasma-side sample was added 450 μL of ice acetonitrile containing an internal standard, and then precipitated. After vortexing for 5 minutes, the sample was centrifugated (12000 rpm, 4° C.) for 10 minutes. 75 μL of the supernatant was pipetted, and 75 μL of ultrapure water was added thereto for dilution and mixed uniformly. 1 μL of the resulting solution was injected for analysis. […]

HBV DNA in serum [4] = test: Antiviral effect evaluation in AAV mouse model (rAAV8-1.3HBV); format: in vivo, C57BL/6 mice; details: for Reduction levels (log10) of HBV DNA in serum, Day 28: Day 28 (1 week after administration suspended)
Method: 6-8 week old male C57BL/6 mice (Shanghai Lingchang Biotechnology Co., Ltd.) were injected with rAAV8-1.3HBV virus (Beijing FivePlus Gene Technology Ltd., adr subtype) at tail vein at a dose of 1×10^11 vg. Blood was collected from the orbits of the mice on week 2 and 4 after the virus injection. The serum was separated, and the expression levels of HBeAg and HBsAg in the serum and the HBV DNA copy number were detected to evaluate whether the model was successfully established. According to the results of quantitative detection of serological HBeAg, HBsAg and HBV DNA, the mice having HBV DNA expression level greater than 1×10^4 IU/mL, HBeAg expression level greater than 1×10^3 NCU/mL and HBsAg expression level greater than 1×10^3 ng/mL were selected. The mice were grouped into a blank control group, a vehicle control group, and a test substance group. The mice in each group were continuously administered intragastrically once daily for 3 weeks and then the administration was suspended for 1 week. During the experiment, blood was collected from the orbits every other week, serum was separated, and the DNA content was detected by fluorescent quantitative PCR method.

Chain of CYP2C19 (P33261 whole entry): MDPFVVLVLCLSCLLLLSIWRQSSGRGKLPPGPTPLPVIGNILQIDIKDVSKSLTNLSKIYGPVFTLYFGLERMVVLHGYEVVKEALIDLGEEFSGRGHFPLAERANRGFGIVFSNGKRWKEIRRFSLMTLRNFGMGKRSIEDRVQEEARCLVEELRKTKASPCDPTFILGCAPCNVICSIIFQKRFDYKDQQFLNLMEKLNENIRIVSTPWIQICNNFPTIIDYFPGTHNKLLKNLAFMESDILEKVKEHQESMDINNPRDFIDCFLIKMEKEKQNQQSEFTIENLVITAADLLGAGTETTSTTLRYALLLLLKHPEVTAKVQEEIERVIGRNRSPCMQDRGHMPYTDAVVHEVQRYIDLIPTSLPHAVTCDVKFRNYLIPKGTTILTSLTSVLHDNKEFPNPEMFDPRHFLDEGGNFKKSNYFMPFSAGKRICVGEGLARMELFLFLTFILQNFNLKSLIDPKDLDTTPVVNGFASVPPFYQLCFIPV

Compound: Cc1[nH]c(C(=O)C(=O)N[C@@H](C)C(F)(F)F)c(C)c1C(=O)Nc1ccc(F)c(C#N)c1 [Example 1, (S)—N-(3-cyano-4-fluorophenyl)-2,4-dimethyl-5-(2-oxo-2-((1,1,1-trifluoroprop-2-yl)amino)acetyl)-1H-pyrrole-3-carboxamide]
- Reduction levels (log10) of HBV DNA in serum, Day 4 (HBV DNA in serum [1]; Day 4): 2.95 log10
- Reduction levels (log10) of HBV DNA in serum, Day 7 (HBV DNA in serum [1]; Day 7): 4.13 log10
- Reduction levels (log10) of HBV DNA in serum, Day 10 (HBV DNA in serum [1]; Day 10): 2.71 log10
- IC50 (CYP2C19): 20 µM
- Remaining (%) of human liver microsomes at 60 min [2]: 99%
- Binding rate (%) Dog ([3]; 1 μM): 94.0%
- Binding rate (%) Dog ([3]; 10 μM): 93.9%
- Reduction levels (log10) of HBV DNA in serum, Day 7 (HBV DNA in serum [4]; 1 mpk intragastric once daily): 2.49 log10
- Reduction levels (log10) of HBV DNA in serum, Day 14 (HBV DNA in serum [4]; 1 mpk intragastric once daily): 3.41 log10
- Reduction levels (log10) of HBV DNA in serum, Day 21 (HBV DNA in serum [4]; 1 mpk intragastric once daily): 3.65 log10
- Reduction levels (log10) of HBV DNA in serum, Day 28 (HBV DNA in serum [4]; 1 mpk): 3.25 log10
- Reduction levels (log10) of HBV DNA in serum, Day 7 (HBV DNA in serum [4]; 10 mpk intragastric once daily): 2.67 log10
- Reduction levels (log10) of HBV DNA in serum, Day 14 (HBV DNA in serum [4]; 10 mpk intragastric once daily): 3.80 log10
- Reduction levels (log10) of HBV DNA in serum, Day 21 (HBV DNA in serum [4]; 10 mpk intragastric once daily): 4.30 log10
- Reduction levels (log10) of HBV DNA in serum, Day 28 (HBV DNA in serum [4]; 10 mpk): 3.50 log10
